Results published in paper PMC12040169 (PLOS Biology, 2025).

Assay: in vitro
Details: human, hela cells, % viability

Row | SMILES | viability at 28.5 h, 10 µM [%]
1 | CC(C)Nc1nc2ccccc2nc1OCCCN(C)C [CBK113416] | 108
2 | CC(C)Nc1nc2cc(Cl)c(Cl)cc2nc1OCCN(C)C [CBK113419] | 103
3 | c1ncc(N2CCCC2)nc1OCCN1CCOCC1 [CBK113430] | 89.1
4 | Clc1cc2nc(OC3CCCNC3)c(N3CCCC3)nc2cc1Cl (stereo not shown) [CBK113454] | 108
5 | FC(F)(F)c1cccnc1OCCN1CCOCC1 [CBK113456] | 101
6 | CN1CCN(C)C(COc2ncccc2C(F)(F)F)C1 (stereo not shown) [CBK113458] | 90.5
7 | CCN(CC)CCCOC1(C)SC(NC2CCCCCC2)=NC1=O (stereo not shown) [CBK113510] | 86.5
8 | Fc1ccc(OCCCCCN2CCC3(CC2)OCCc2c3[nH]c3ccccc23)cc1 [CBK113516T] | 2.48
9 | CCCc1n[nH]c(-c2cccc(C)c2C)c1C(=O)OCC [CBK113545] | 106
10 | CCCc1n[nH]c(-c2c(F)cccc2F)c1C(=O)OCC [CBK113546] | 92.7
11 | COc1cccc(CCOc2cncc(Cl)n2)c1 [CBK113556] | 87.3
12 | CS(=O)(=O)c1ccc(Nc2ncnc(N3CCC(Sc4ccccc4)CC3)c2[N+](=O)[O-])cc1 [CBK113567] | 92.8
13 | OC1CCCn2c1nc1cc(Cl)ccc12 (stereo not shown) [CBK113625] | 72.4
14 | COc1ccc(C)cc1S(=O)(=O)N1CCc2c(CN3CCN(C)CC3)cccc21 [CBK113628T] | 115
15 | COc1ccc(C)cc1S(=O)(=O)N1CCc2c(CN3CCOCC3)cccc21 [CBK113630T] | 86.8
16 | N#Cc1ccc(-c2cnc(N)c(-c3ccccc3Cl)n2)cc1 [CBK113660] | 88.5
17 | COc1ccc(N2Cc3ccccc3C2=O)cc1OC [CBK113666] | 95.5
18 | Cn1ncc2c1C(=O)NC1c3ccccc3C(=O)N21 (stereo not shown) [CBK113668] | 94.3
19 | O=c1sn(-c2ccccc2C(F)(F)F)c(=O)n1CC1CC1 [CBK113675] | 82.8
20 | Cc1n[nH]cc1-c1nsc(Nc2ccccc2)n1 [CBK113680] | 92.2
21 | O=C(O)c1cc(S(=O)(=O)Nc2ccc(F)cc2)c(Cl)cc1Cl [CBK113685] | 84.9
22 | Cn1c(C(=O)O)ccc1S(=O)(=O)NCc1ccco1 [CBK113686] | 105
23 | Cc1cccc(NC(=O)c2ccccc2NS(=O)(=O)c2ccc(F)c(F)c2)c1 [CBK113810] | 115
24 | O=C(NCc1ccccc1)c1ccccc1NS(=O)(=O)c1ccccc1F [CBK113881] | 106
25 | CCCN(CCC)C(=O)c1ccc(-n2nc(C(=O)OCC)c(Br)c2C)cc1 [CBK114363] | 109

Row | SMILES | viability at 28.5 h, 10 µM [%]
26 | Cc1nnc(-c2cc(CC(C)C)n(-c3cccc(C(=O)N4CC=CCC4)c3)n2)o1 [CBK114630] | 91.6
27 | Cc1nnc(-c2cc(CCC(C)C)n(-c3cccc(C(=O)N4CCCCC4)c3)n2)o1 [CBK114689] | 95.4
28 | Cc1csc(Sc2nccnc2NC(C)C)n1 [CBK115203] | 88.8
29 | CC(C)Nc1nccnc1Sc1nc[nH]n1 [CBK115205] | 97.5
30 | Cc1nnc(Sc2ncccc2C(F)(F)F)s1 [CBK115211] | 87.7
31 | FC(F)(F)c1cccnc1Sc1nc[nH]n1 [CBK115213] | 102
32 | Cc1nnc(Sc2cc(C(F)(F)F)ccn2)s1 [CBK115215] | 87.6
33 | c1csc(Sc2nc3ccccc3nc2N2CCCC2)c1 [CBK115225] | 94.3
34 | Fc1ccc(Sc2ccc(C(F)(F)F)cn2)cc1 [CBK115235] | 106
35 | FC(F)(F)c1ccc(Sc2cccs2)nc1 [CBK115236] | 92.5
36 | Cc1ccccc1Sc1ccc(C(F)(F)F)cn1 [CBK115237] | 112
37 | Nc1cccc(Sc2cccc(C(F)(F)F)n2)c1 [CBK115239] | 99.3
38 | Fc1ccc(Sc2cccc(C(F)(F)F)n2)cc1 [CBK115240] | 97.5
39 | Cc1ccccc1Sc1cccc(C(F)(F)F)n1 [CBK115243] | 103
40 | FC(F)(F)c1ccnc(Sc2cccs2)n1 [CBK115245] | 87.7
41 | COc1ccc(Sc2nccnc2NC(C)C)cc1OC [CBK115249] | 87.4
42 | COCc1nnc(Sc2nc3ccccc3nc2NC(C)C)s1 [CBK115253] | 96.5
43 | c1ccc2nc(N3CCCC3)c(Sc3nc[nH]n3)nc2c1 [CBK115265] | 90.9
44 | CC(C)Nc1nccnc1OC1CCNC1 (stereo not shown) [CBK115279] | 92.5
45 | CC(C)Nc1nc2cc(Cl)c(Cl)cc2nc1OCCCN(C)C [CBK115282] | 93.1
46 | c1cnc(N2CCCC2)c(OC2CCCNC2)n1 (stereo not shown) [CBK115283] | 90.2
47 | CCOC(=O)Cn1c(C)nc2ccccc21 [CBK115311] | 103
48 | CC1(C(F)(F)F)OC(NC2C3CC4CC(C3)CC2C4)=NC1=O (stereo not shown) [CBK115312] | 114
49 | O=c1c([N+](=O)[O-])c(O)c2ccccc2n1-c1ccccc1 [CBK115316] | 97.5
50 | COc1ccccc1-n1c(C)c(C(C)=O)c2cc(O)ccc21 [CBK115320] | 86.3

Row | SMILES | viability at 28.5 h, 10 µM [%]
51 | COC(=O)c1nn(-c2ccccc2)c2cc([N+](=O)[O-])ccc12 [CBK115321] | 99.3
52 | Cc1cc(O)c(C(C)C)cc1N1C(=O)c2ccc([N+](=O)[O-])cc2C1=O [CBK115323] | 97.7
53 | Cn1c(CNc2ccccc2[N+](=O)[O-])c(C#N)c2ccccc21 [CBK115324] | 98.1
54 | Cc1ccc(-n2c(C)c([N+](=O)[O-])c3ccc(O)c(CN(C)C)c32)cc1 [CBK115328] | 88.8
55 | Cc1cc(O)nc2sc(C(=O)c3ccccc3)c(N)c12 [CBK115334] | 87.9
56 | Cc1cc(C)c2c(N)c(C(=O)C(C)(C)C)sc2n1 [CBK115341] | 81.3
57 | Cc1ccc2c(N)c(C(=O)Nc3ccc(C#N)cc3)sc2n1 [CBK115348] | 91.3
58 | COc1ccc2c(c1)/C(=C/c1cnc[nH]1)C(=O)N2 [CBK115354] | 72.5
59 | CC(C)NC(=O)/C(=C/c1c[nH]c2ncccc12)c1ccccc1 [CBK115357] | 95.8
60 | CCN(CC)C(=O)c1sc2nc(-c3cccs3)nc(C)c2c1N [CBK115366] | 100
61 | CC(=O)c1sc2nc(-c3ccccc3)nc(C)c2c1N [CBK115368] | 90.5
62 | Cc1ccc2c(N)c(C(=O)c3cccs3)sc2n1 [CBK115369] | 92.5
63 | COc1ccc(Cn2c(C)nc3c([N+](=O)[O-])c(C)c(C)cc32)cc1 [CBK115370] | 102
64 | CCOC(=O)c1sc2nccc(N(C)C)c2c1-n1cccc1 [CBK115381] | 93.4
65 | COC(=O)c1ccccc1N1C(=O)c2cccc([N+](=O)[O-])c2C1=O [CBK115382] | 95.7
66 | O=C1Nc2ccccc2/C1=C/c1c[nH]cn1 [CBK115386] | 92.8
67 | COC[C@H]1CCCN1C(=O)Cn1[nH]c(C)c(Cc2c(Cl)cccc2Cl)c1=O [CBK115407] | 103
68 | COc1ccc2c(c1)nc1n2CCC1O (stereo not shown) [CBK115449] | 96.9
69 | COc1cccc(CN2CCCN(c3nccc(OCC4COc5ccccc5O4)n3)CC2)c1OC (stereo not shown) [CBK115476T] | 108
70 | CC1(c2[nH]nc(N)c2Cc2c(Cl)cccc2Cl)CC1 [CBK115483T] | 92.3
71 | Cc1[nH]c(=O)[nH]c(=S)c1C(=O)NCc1ccc(Cl)cc1 [CBK115489] | 106
72 | Cc1[nH]c(=O)[nH]c(=S)c1C(=O)NCc1cccc(Cl)c1C [CBK115493] | 94.6
73 | Cc1[nH]c(=O)[nH]c(=S)c1C(=O)Nc1ccc(Cl)cc1C#N [CBK115502] | 91
74 | Cc1[nH]c(=O)[nH]c(=S)c1C(=O)Nc1ccc(C(F)(F)F)cc1 [CBK115510] | 96.2
75 | Nc1ncc(-c2ccccc2O)nc1-c1ccc(O)cc1 [CBK115548] | 78.5

Row | SMILES | viability at 28.5 h, 10 µM [%]
76 | Cc1ccc(C(=O)c2coc3ccc(O)cc23)cc1 [CBK115557] | 89.1
77 | O=C(O)CSc1ccc(Cl)cc1 [CBK115571] | 88.4
78 | O=[N+]([O-])c1cccnc1Sc1ccccc1C1=NCCCN1 [CBK115579C] | 96.2
79 | NCCCOc1cncc(N2CCCC2)n1 [CBK115603] | 96.8
80 | Nc1ncc(-c2ccsc2)nc1-c1ccc(O)cc1 [CBK115631] | 100
81 | O=C1N=C(NC2C3CC4CC(C3)CC2C4)OC12CCN(CCC(F)(F)F)CC2 (stereo not shown) [CBK115640] | 91.4
82 | CC(C)Nc1nccnc1OCc1ccc(F)cc1 [CBK115644] | 113
83 | CC(C)Nc1nccnc1OCc1ccsc1 [CBK115646] | 103
84 | CC(C)Nc1cc(OCc2ccc(F)cc2)ncn1 [CBK115654] | 103
85 | CC(C)Nc1cc(OCc2ccc(-c3ccccc3)cc2)ncn1 [CBK115658] | 103
86 | CC(C)Nc1nc2ccccc2nc1OCc1ccsc1 [CBK115660] | 104
87 | Clc1ccc(OCCOc2cncc(N3CCCC3)n2)cc1 [CBK115668] | 87.4
88 | c1ccc(NCCOc2cncc(N3CCCC3)n2)cc1 [CBK115670] | 101
89 | Cc1cc(O)ccc1-c1cncc(-c2ccc(O)cc2C)n1 [CBK115689] | 90.5
90 | O=C(NCCN1CCOCC1)c1ccc(Nc2cncc(-c3ccc(O)cc3)n2)cc1 [CBK115692] | 77.1
91 | CCOC(=O)N1CCC(NC(=O)c2ccc(Nc3cncc(-c4ccc(O)cc4)n3)cc2)CC1 [CBK115694] | 107
92 | CCCc1n[nH]c(C2CC2)c1C(=O)OCC [CBK115714] | 115
93 | CCCc1n[nH]c(C2CCCC2)c1C(=O)OCC [CBK115727] | 85.1
94 | CC(C)Nc1nc2ccccc2nc1OCCC#N [CBK115735] | 103
95 | Cc1ncsc1CCOc1nc2ccccc2nc1NC(C)C [CBK115736] | 102
96 | COCCCOc1nc2ccccc2nc1NC(C)C [CBK115737] | 99.3
97 | CC(C)Nc1nc2cc(Cl)c(Cl)cc2nc1OCc1cccnc1 [CBK115743] | 97.4
